Data from US20250179059A1 (The Regents of the University of California, priority 2021, published 2025).
Like-named read-outs stand apart in the source and are kept apart here.

Assays:
[1] = target: T1, human BRD4 bromodomain II (Homo sapiens, UniProt O60885); assay: Bromodomain binding assay (AlphaScreen), BRD4 BDII
T1 construct: human BRD4 bromodomain II [based on Genbank NM_058243, residues 349-460]; host or cells: E. coli
Method in brief: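 Inhibition of acetyl-H4 peptide binding to human BRD4 bromodomains is measured by bead-based proximity (AlphaScreen) in pH 7.5 HEPES buffer containing 0.05% CHAPS and 0.1% BSA. Ten compound concentrations in 3-fold steps give competitive binding IC50s.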

[2] = system: human SKM-1 acute myeloid leukemia cells; assay: SKM-1 antiproliferation cell-based assay (ATPlite); settings: Homo sapiens
Method in brief: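 Log-phase cells in RPMI 1640/15% FBS were seeded at 34722 cells/mL and exposed for 4 days to nine-concentration DMSO serial dilutions in triplicate. Viability was read as ATP luminescence (ATPlite 1step), and IC50 values came from variable-slope non-linear regression.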

[3] = AlphaScreen assay, Table C2, read-out: BRD4 BDII IC50
[4] = SKM-1, 96 h, SKM-1 antiproliferation assay, 4 days, Table C2
[5] = BRD4 BDII AlphaScreen assay, read-out: BRD4 BD2 IC50
[6] = SKM-1, SKM-1 antiproliferation assay

Row | Compound | IC50 [1, 3] | GI50 [2, 4] | IC50 [1, 5] | GI50 [2, 6]
1 | Cn1ccn(-c2ccc(-c3cc(F)cc(-c4ccnc(N5CCN(C6CC6)CC5)c4)c3O)cc2Cl)c1=O [Example 531, 1-(3-chloro-3′-(2-(4-cyclopropylpiperazin-1-yl)pyridin-4-yl)-5′-fluoro-2′-hydroxy-[1,1′-biphenyl]-4-yl)-3-methyl-1H-imidazol-2(3H)-one] | 1 to 10 nM | 30 to 300 nM | – | –
2 | CN1CC2CN(c3cc(-c4cc(F)cc(-c5ccc(-n6ccn(C)c6=O)c(Cl)c5)c4O)ccn3)CC21 (centres unmarked) [Example 659, 1-(3-chloro-5′-fluoro-2′-hydroxy-3′-(2-(6-methyl-3,6-diazabicyclo[3.2.0]heptan-3-yl)pyridin-4-yl)-[1,1′-biphenyl]-4-yl)-3-methyl-1H-imidazol-2(3H)-one] | 0.01 to 1 nM | 0.3 to 30 nM | – | –
3 | CC(=O)N[C@]1(C)CCN(c2cncc(-c3cc(F)cc(-c4ccc(-n5ccn(C)c5=O)c(Cl)c4)c3O)c2)C1 [Example 793, (R)-N-(1-(5-(3′-chloro-5-fluoro-2-hydroxy-4′-(3-methyl-2-oxo-2,3-dihydro-1H-imidazol-1-yl)-[1,1′-biphenyl]-3-yl)pyridin-3-yl)-3-methylpyrrolidin-3-yl)acetamide] | 0.01 to 1 nM | 0.3 to 30 nM | – | –
4 | Cn1ccn(-c2ccc(-c3cc(F)cc(-c4cc(N5CC6CC5CN6)c5cn[nH]c5c4)c3O)cc2Cl)c1=O (centres unmarked) [Example 599, 1-(3′-(4-(2,5-diazabicyclo[2.2.1]heptan-2-yl)-1H-indazol-6-yl)-3-chloro-5′-fluoro-2′-hydroxy-[1,1′-biphenyl]-4-yl)-3-methyl-1H-imidazol-2(3H)-one] | 1 to 10 nM | 30 to 300 nM | – | –
5 | CN1CCN(c2ccc(-c3cc(F)cc(-c4cnc(NCCO)c(N5CCNCC5)c4)c3O)cc2Cl)C1=O [Example 405, 1-(3-chloro-5′-fluoro-2′-hydroxy-3′-(6-((2-hydroxyethyl)amino)-5-(piperazin-1-yl)pyridin-3-yl)-[1,1′-biphenyl]-4-yl)-3-methylimidazolidin-2-one] | 1 to 10 nM | 30 to 300 nM | – | –
6 | Cc1ncc(-c2cc(F)cc(-c3ccc(-n4ccn(C)c4=O)c(Cl)c3)c2O)cc1N1CC(F)(F)[C@](C)(O)C1 [Example 898] | – | – | 1 to 10 nM | 30 to 300 nM
7 | Cn1ccn(-c2ccc(-c3cc(F)cc(-c4cc(N5CCN(C(C)(C)C)CC5)ncn4)c3O)cc2Cl)c1=O [Example 942, 1-(3′-(6-(4-(tert-butyl)piperazin-1-yl)pyrimidin-4-yl)-3-chloro-5′-fluoro-2′-hydroxy-[1,1′-biphenyl]-4-yl)-3-methyl-1H-imidazol-2(3H)-one] | – | – | > 100 nM | 300 to 3000 nM
8 | Cn1ccn(-c2ccc(-c3cc(F)cc(-c4ccnc(N5CCN(CCO)CC5)c4)c3O)cc2Cl)c1=O [Example 471, 1-(3-chloro-5′-fluoro-2′-hydroxy-3′-(2-(4-(2-hydroxyethyl)piperazin-1-yl)pyridin-4-yl)-[1,1′-biphenyl]-4-yl)-3-methyl-1H-imidazol-2(3H)-one] | 0.01 to 1 nM | 0.3 to 30 nM | – | –
9 | CC(=O)N(C)C1(c2cccc(-c3cc(F)cc(-c4ccc(-n5ccn(C)c5=O)c(Cl)c4)c3O)c2)CC1 [Example 794, N-(1-(3″-chloro-5′-fluoro-2′-hydroxy-4″-(3-methyl-2-oxo-2,3-dihydro-1H-imidazol-1-yl)-[1,1′:3′,1″-terphenyl]-3-yl)cyclopropyl)-N-methylacetamide] | 10 to 100 nM | 300 to 3000 nM | – | –
10 | C[C@@H]1CN(c2cc(-c3cc(F)cc(-c4ccc(-n5ccn(C)c5=O)c(Cl)c4)c3O)ccn2)CCO1 [Example 673, (R)-1-(3-chloro-5′-fluoro-2′-hydroxy-3′-(2-(2-methylmorpholino)pyridin-4-yl)-[1,1′-biphenyl]-4-yl)-3-methyl-1H-imidazol-2(3H)-one] | 0.01 to 1 nM | 30 to 300 nM | – | –
11 | COc1ncc(-c2cc(F)cc(-c3ccc(-n4ccn(C)c4=O)c(Cl)c3)c2O)cc1N1CC(F)(F)[C@@](C)(O)C1 [Example 899] | – | – | 1 to 10 nM | 300 to 3000 nM
12 | O=C1NCCCN1c1ccc(-c2cccc(-c3ccnc(N4CCNCC4)c3)c2O)cc1F [Example 277, 1-(3-fluoro-2′-hydroxy-3′-(2-(piperazin-1-yl)pyridin-4-yl)-[1,1′-biphenyl]-4-yl)tetrahydropyrimidin-2(1H)-one] | > 100 nM | 300 to 3000 nM | – | –
13 | Cn1ccn(-c2ccc(-c3cc(F)cc(-c4cncc(N5C[C@@H](N)[C@H](O)C5)c4)c3O)cc2Cl)c1=O [Example 491, 1-(3′-(5-((3R,4R)-3-amino-4-hydroxypyrrolidin-1-yl)pyridin-3-yl)-3-chloro-5′-fluoro-2′-hydroxy-[1,1′-biphenyl]-4-yl)-3-methyl-1H-imidazol-2(3H)-one] | 0.01 to 1 nM | 30 to 300 nM | – | –
14 | C[C@@H]1CN(c2cc(-c3cc(F)cc(-c4ccc(-n5ccn(C)c5=O)c(Cl)c4)c3O)ccn2)C[C@H](C)N1 [Example 555, 1-(3-chloro-3′-(2-((3R,5S)-3,5-dimethylpiperazin-1-yl)pyridin-4-yl)-5′-fluoro-2′-hydroxy-[1,1′-biphenyl]-4-yl)-3-methyl-1H-imidazol-2(3H)-one] | 1 to 10 nM | 0.3 to 30 nM | – | –
15 | CC(C)N1CCN(c2cc(-c3cc(F)cc(-c4ccc(-n5ccn(C)c5=O)c(Cl)c4)c3O)cnn2)CC1 [Example 797, 1-(3-chloro-5′-fluoro-2′-hydroxy-3′-(6-(4-isopropylpiperazin-1-yl)pyridazin-4-yl)-[1,1′-biphenyl]-4-yl)-3-methyl-1H-imidazol-2(3H)-one] | 0.01 to 1 nM | 0.3 to 30 nM | – | –
16 | Cn1ccn(-c2ccc(-c3cc(F)cc(-c4cncc(N5CC[C@@](C)(O)C5)c4)c3O)cc2Cl)c1=O [Example 728, (R)-1-(3-chloro-5′-fluoro-2′-hydroxy-3′-(5-(3-hydroxy-3-methylpyrrolidin-1-yl)pyridin-3-yl)-[1,1′-biphenyl]-4-yl)-3-methyl-1H-imidazol-2(3H)-one] | 1 to 10 nM | 0.3 to 30 nM | – | –
17 | Cn1ccn(-c2ccc(-c3cc(F)cc(-c4ccc5ccc(C(C)(C)O)cc5c4)c3O)cc2Cl)c1=O [Example 801, 1-(3-chloro-5′-fluoro-2′-hydroxy-3′-(7-(2-hydroxypropan-2-yl)naphthalen-2-yl)-[1,1′-biphenyl]-4-yl)-3-methyl-1H-imidazol-2(3H)-one] | 1 to 10 nM | 30 to 300 nM | – | –
18 | Cn1ccn(-c2ccc(-c3cc(F)cc(-c4cccc(-c5ccc(CN)cc5)c4)c3O)cc2Cl)c1=O [Example 863] | – | – | 10 to 100 nM | 300 to 3000 nM
19 | CC(C)N1CC2CN(c3cccc(-c4cc(F)cc(-c5ccc(-n6ccn(C)c6=O)c(Cl)c5)c4O)c3)CC2C1 (centres unmarked) [Example 946, 1-(3-chloro-5′-fluoro-2′-hydroxy-3″-(5-isopropylhexahydropyrrolo[3,4-c]pyrrol-2(1H)-yl)-[1,1′:3′,1″-terphenyl]-4-yl)-3-methyl-1,3-dihydro-2H-imidazol-2-one] | – | – | 1 to 10 nM | 30 to 300 nM
20 | Cn1ccn(-c2ccc(-c3cc(F)cc(-c4cccc(N5CC[C@](C)(N)C5)c4)c3O)cc2Cl)c1=O [Example 749, (S)-1-(3″-(3-amino-3-methylpyrrolidin-1-yl)-3-chloro-5′-fluoro-2′-hydroxy-[1,1′:3′,1″-terphenyl]-4-yl)-3-methyl-1H-imidazol-2(3H)-one] | 1 to 10 nM | 0.3 to 30 nM | – | –
21 | O=c1ccccn1-c1ccc(-c2cc(F)cc(-c3ccnc(N4CCNCC4)c3)c2O)cc1Cl [Example 502, 1-(3-chloro-5′-fluoro-2′-hydroxy-3′-(2-(piperazin-1-yl)pyridin-4-yl)-[1,1′-biphenyl]-4-yl)pyridin-2(1H)-one] | > 100 nM | ≥ 3000 nM | – | –
22 | O=C1CCCN1c1ccc(-c2cc(Cl)cc(-c3ccnc(N4CCNCC4)c3)c2O)cc1F [Example 269, 1-(5′-chloro-3-fluoro-2′-hydroxy-3′-(2-(piperazin-1-yl)pyridin-4-yl)-[1,1′-biphenyl]-4-yl)pyrrolidin-2-one] | 1 to 10 nM | 300 to 3000 nM | – | –
23 | O=C1CCCCN1c1ccc(-c2cc(F)cc(-c3ccnc(N4CCNCC4)c3)c2O)cc1F [Example 280, 1-(3,5′-difluoro-2′-hydroxy-3′-(2-(piperazin-1-yl)pyridin-4-yl)-[1,1′-biphenyl]-4-yl)piperidin-2-one] | 10 to 100 nM | 300 to 3000 nM | – | –
24 | COC(=O)Oc1c(-c2ccc(-n3ccn(C)c3=O)c(Cl)c2)cc(F)cc1-c1cnc(C)c(N2CCN(C(C)C)CC2)c1 [Example 877] | – | – | > 100 nM | 0.3 to 30 nM
25 | CN1CCN(c2ccc(-c3cccc(-c4ccnc(N5CCNCC5)c4)c3O)cc2F)C1=O [Example 240, 1-(3-fluoro-2′-hydroxy-3′-(2-(piperazin-1-yl)pyridin-4-yl)-[1,1′-biphenyl]-4-yl)-3-methylimidazolidin-2-one] | 1 to 10 nM | 30 to 300 nM | – | –
26 | CC#Cc1ncc(-c2cc(F)cc(-c3ccc(N4CCN(C)C4=O)c(Cl)c3)c2O)cc1N1CCNCC1 [Example 403, 1-(3-chloro-5′-fluoro-2′-hydroxy-3′-(5-(piperazin-1-yl)-6-(prop-1-yn-1-yl)pyridin-3-yl)-[1,1′-biphenyl]-4-yl)-3-methylimidazolidin-2-one] | 1 to 10 nM | 0.3 to 30 nM | – | –
27 | Cn1ccn(-c2ccc(-c3cc(F)cc(-c4cc(-c5ccn[nH]5)cc(N5CCNCC5)c4)c3O)cc2Cl)c1=O [Example 568] | 0.01 to 1 nM | 0.3 to 30 nM | – | –
28 | Cn1ccn(-c2ccc(-c3cc(F)cc(-c4ccnc(N5CCN6CCOCC6C5)c4)c3O)cc2Cl)c1=O (centres unmarked) [Example 647, 1-(3-chloro-5′-fluoro-3′-(2-(hexahydropyrazino[2,1-c][1,4]oxazin-8(1H)-yl)pyridin-4-yl)-2′-hydroxy-[1,1′-biphenyl]-4-yl)-3-methyl-1H-imidazol-2(3H)-one] | 0.01 to 1 nM | 0.3 to 30 nM | – | –
